From ChEMBL document CHEMBL3217584, “Pharmacokinetics of bendamustine in the central nervous system: chemoinformatic screening followed by validation in a murine model” (Medchemcomm, 2012)

What was measured:
Brain = assay: Drug uptake in C57BL/6J mouse brain at 70 mg/kg, ip measured at 20 to 40 mins by CE-UV analysis; type: ADME, organism-based; parameters: dose 70 mg/kg, route intraperitoneal; conditions: in vivo
[1] = Drug uptake in C57BL/6J mouse eye at 70 mg/kg, ip measured at 20 to 40 mins by CE-UV analysis; type: ADME, organism-based; parameters: dose 70 mg/kg, route intraperitoneal; conditions: in vivo
[2] = Half life in C57BL/6J mouse serum at 70 mg/kg, ip by CE-UV analysis; type: ADME, organism-based; parameters: dose 70 mg/kg, route intraperitoneal
[3] = Cmax in C57BL/6J mouse CSF at 70 mg/kg, ip measured at 20 to 40 mins by CE-UV analysis; type: ADME, organism-based, Cerebrospinal fluid; parameters: dose 70 mg/kg, route intraperitoneal
[4] = AUC in C57BL/6J mouse serum at 70 mg/kg, ip by CE-UV analysis; type: ADME, organism-based, Plasma; parameters: dose 70 mg/kg, route intraperitoneal
[5] = AUC in C57BL/6J mouse CSF at 70 mg/kg, ip by CE-UV analysis; type: ADME, organism-based; parameters: dose 70 mg/kg, route intraperitoneal
[6] = Ratio of AUC in C57BL/6J mouse CSF to AUC in C57BL/6J mouse serum; type: ADME

With `Cn1c(CCCC(=O)O)nc2cc(N(CCCl)CCCl)ccc21` [BENDAMUSTINE] as the molecule, how does the Drug uptake (Brain) read?
Its Drug uptake is “Active”.

What about the Drug uptake [1] of the same molecule?
The Drug uptake was “Active”.

And the half-life [2]?
Its half-life is 40 min.

And the Cmax [3]?
Its Cmax is 393 µM.

And the AUC [4]?
Its AUC is 575 µM·h.

What about the AUC [5] of the same molecule?
Its AUC is 210 µM·h.

What about the “Ratio AUC” value [6] of the same molecule?
Its value is 35%.
